# pIC50: −log10 of the molar value.
# Legend:
# [1] = test system: PC-3; experiment: Antiproliferative activity against human PC3 cells assessed as growth inhibition after 48 hrs by sulforhodamine B assay; assay type: functional; conditions: PC-3, 48 h
# [2] = test system: A498; experiment: Antiproliferative activity against human A498 cells assessed as growth inhibition after 48 hrs by sulforhodamine B assay; assay type: functional; conditions: A498, 48 h
# [3] = test system: SF-295; experiment: Antiproliferative activity against human SF295 cells assessed as growth inhibition after 48 hrs by sulforhodamine B assay; assay type: functional; conditions: SF-295, 48 h
# [4] = test system: MDA-MB-435; experiment: Antiproliferative activity against human MDA-MB-435 cells assessed as growth inhibition after 48 hrs by sulforhodamine B assay; assay type: functional; conditions: MDA-MB-435, 48 h
# [5] = test system: MDA-MB-468; experiment: Antiproliferative activity against human MDA-MB-468 cells assessed as growth inhibition after 48 hrs by sulforhodamine B assay; assay type: functional; conditions: MDA-MB-468, 48 h
# [6] = Antioxidant activity assessed as DPPH radical scavenging activity incubated in dark for 30 mins by spectrophotometric method relative to control; assay type: functional; design: concentration or dose not given beside the values
# [7] = test system: U-251; experiment: Antiproliferative activity against human U251 cells assessed as growth inhibition after 48 hrs by sulforhodamine B assay; assay type: functional; conditions: U-251, 48 h
# [8] = test system: HCC 2998; experiment: Antiproliferative activity against human HCC2998 cells assessed as growth inhibition after 48 hrs by sulforhodamine B assay; assay type: functional; conditions: HCC 2998, 48 h
# [9] = test system: IGROV-1; experiment: Antiproliferative activity against human IGROV1 cells assessed as growth inhibition after 48 hrs by sulforhodamine B assay; assay type: functional; conditions: IGROV-1, 48 h
# [10] = test system: MOLT-4; experiment: Antiproliferative activity against human MOLT4 cells assessed as growth inhibition after 48 hrs by sulforhodamine B assay; assay type: functional; conditions: MOLT-4, 48 h
# [11] = Antioxidant activity assessed as ABTS radical scavenging activity by spectrophotometric method relative to ascorbic acid; assay type: functional
# [12] = test system: BT-549; experiment: Antiproliferative activity against human BT549 cells assessed as growth inhibition after 48 hrs by sulforhodamine B assay; assay type: functional; conditions: BT-549, 48 h
# [13] = test system: COLO 205; experiment: Antiproliferative activity against human COLO205 cells assessed as growth inhibition after 48 hrs by sulforhodamine B assay; assay type: functional; conditions: COLO 205, 48 h
# [14] = test system: EKVX; experiment: Antiproliferative activity against human EKVX cells assessed as growth inhibition after 48 hrs by sulforhodamine B assay; assay type: functional
# [15] = test system: NCI-H226; experiment: Antiproliferative activity against human NCI-H226 cells assessed as growth inhibition after 48 hrs by sulforhodamine B assay; assay type: functional; conditions: NCI-H226, 48 h
# [16] = test system: SW-620; experiment: Antiproliferative activity against human SW620 cells assessed as growth inhibition after 48 hrs by sulforhodamine B assay; assay type: functional; conditions: SW-620, 48 h
# [17] = test system: HCT-15; experiment: Antiproliferative activity against human HCT15 cells assessed as growth inhibition after 48 hrs by sulforhodamine B assay; assay type: functional; conditions: HCT-15, 48 h
# [18] = test system: HL-60(TB); experiment: Antiproliferative activity against human HL-60(TB) cells assessed as growth inhibition after 48 hrs by sulforhodamine B assay; assay type: functional; conditions: HL-60, 48 h
# [19] = test system: NCI/ADR-RES; experiment: Antiproliferative activity against human NCI-ADR-RES cells assessed as growth inhibition after 48 hrs by sulforhodamine B assay; assay type: functional
# [20] = test system: A549; experiment: Antiproliferative activity against human A549/ATCC cells assessed as growth inhibition after 48 hrs by sulforhodamine B assay; assay type: functional; conditions: A549, 48 h
# [21] = test system: Erythrocyte; experiment: Haemolytic activity in human erythrocytes assessed as induction of hemolysis at 0.625 mM after 30 mins relative to H202; assay type: cell-based; conditions: erythrocyte, 0.5 h, 625 µM
# [22] = test system: KM12; experiment: Antiproliferative activity against human KM12 cells assessed as growth inhibition after 48 hrs by sulforhodamine B assay; assay type: functional; conditions: KM12, 48 h
# [23] = test system: UO-31; experiment: Antiproliferative activity against human UO31 cells assessed as growth inhibition after 48 hrs by sulforhodamine B assay; assay type: functional; conditions: UO-31, 48 h
# [24] = test system: OVCAR-4; experiment: Antiproliferative activity against human OVCAR4 cells assessed as growth inhibition after 48 hrs by sulforhodamine B assay; assay type: functional; conditions: OVCAR-4, 48 h
# [25] = test system: NCI-H522; experiment: Antiproliferative activity against human NCI-H522 cells assessed as growth inhibition after 48 hrs by sulforhodamine B assay; assay type: functional; conditions: NCI-H522, 48 h
# [26] = test system: ACHN; experiment: Antiproliferative activity against human ACHN cells assessed as growth inhibition after 48 hrs by sulforhodamine B assay; assay type: functional
# [27] = test system: SK-MEL-28; experiment: Antiproliferative activity against human SK-MEL-28 cells assessed as growth inhibition after 48 hrs by sulforhodamine B assay; assay type: functional; conditions: SK-MEL-28, 48 h
# [28] = test system: Panel NCI-60 (60 carcinoma cell lines); experiment: Antiproliferative activity against human NCI60 cells assessed as growth inhibition after 48 hrs by sulforhodamine B assay; assay type: functional
# [29] = test system: HCT-116; experiment: Induction of apoptosis in human HCT116 cells assessed as increase in caspase 9 mRNA expression at 100 nM after 6 hrs hrs by SYBR green dye-based qRT-PCR analysis relative to control; assay type: functional
# [30] = test system: HCT-116; experiment: Antiproliferative activity against human HCT116 cells assessed as growth inhibition after 48 hrs by sulforhodamine B assay; assay type: functional; conditions: HCT-116, 48 h
# [31] = Antioxidant activity assessed as ABTS radical scavenging activity by spectrophotometric analysis relative to control; assay type: functional; design: concentration or dose not given beside the values; conditions: dose or concentration not given here
# [32] = test system: TK-10; experiment: Antiproliferative activity against human TK10 cells assessed as growth inhibition after 48 hrs by sulforhodamine B assay; assay type: functional; conditions: TK-10, 48 h
# [33] = test system: SK-MEL-5; experiment: Antiproliferative activity against human SK-MEL-5 cells assessed as growth inhibition after 48 hrs by sulforhodamine B assay; assay type: functional; conditions: SK-MEL-5, 48 h
# [34] = test system: HCT-116; experiment: […] in CDK1 mRNA expression in human HCT116 cells at 100 nM after 6 hrs hrs by SYBR green dye-based qRT-PCR analysis relative to control; assay type: functional
# [35] = Haemolytic activity in human erythrocytes assessed as induction of hemolysis at 5 mM after 30 mins relative to H202; assay type: cell-based, Erythrocyte; conditions: read-out: Activity
# [36] = test system: OVCAR-8; experiment: Antiproliferative activity against human OVCAR8 cells assessed as growth inhibition after 48 hrs by sulforhodamine B assay; assay type: functional; conditions: OVCAR-8, 48 h
# [37] = test system: K562; experiment: Antiproliferative activity against human K562 cells assessed as growth inhibition after 48 hrs by sulforhodamine B assay; assay type: functional, cell-based; conditions: K562, 48 h; for pIC50: read-out: IC50
# [38] = Antioxidant activity assessed as DPPH radical scavenging activity incubated in dark for 30 mins by spectrophotometric method relative to ascorbic acid; assay type: functional
# [39] = test system: 786-0; experiment: Antiproliferative activity against human 786-0 cells assessed as growth inhibition after 48 hrs by sulforhodamine B assay; assay type: functional; conditions: 786-0, 48 h
# [40] = Selectivity index, ratio of IC50 for human WI38 cells to GI50 for human NCI60 cells
# [41] = test system: NCI-H322M; experiment: Antiproliferative activity against human NCI-H322M cells assessed as growth inhibition after 48 hrs by sulforhodamine B assay; assay type: functional
# [42] = test system: HT-29; experiment: Antiproliferative activity against human HT-29 cells assessed as growth inhibition after 48 hrs by sulforhodamine B assay; assay type: functional; conditions: HT-29, 48 h
compound,measurement,setting,value
COc1cc(-c2ccc(-c3ccc(C(=N)N)s3)s2)cc(OC)c1OC,GI50,[1],1770 nM
same,GI50,[2],2250 nM
same,GI50,[3],1780 nM
same,GI50,[4],1640 nM
same,GI50,[5],1820 nM
same,inhibition,[6],64.1%
same,GI50,[7],1990 nM
same,GI50,[8],1760 nM
same,GI50,[9],1980 nM
same,GI50,[10],2400 nM
same,fold change (FC),[11],0.8
same,GI50,[12],1770 nM
same,GI50,[13],2130 nM
same,GI50,[14],1920 nM
same,GI50,[15],1880 nM
same,GI50,[16],1910 nM
same,GI50,[17],1910 nM
same,GI50,[18],2700 nM
same,GI50,[19],3440 nM
same,GI50,[20],2140 nM
same,Activity,[21],Non-Toxic
same,GI50,[22],1730 nM
same,GI50,[23],1740 nM
same,GI50,[24],1820 nM
same,GI50,[25],1940 nM
same,GI50,[26],1780 nM
same,GI50,[27],1580 nM
same,GI50,[28],1910 nM
same,LC50,[28],20900 nM
same,TGI,[28],4160 nM
same,fold change (FC),[29],2.81
same,GI50,[30],1730 nM
same,inhibition,[31],75.4%
same,GI50,[32],2700 nM
same,GI50,[33],1520 nM
same,fold change (FC),[34],0.81
same,"hemolysis at 0.5 h, 5000 µM",[35],38.7%
same,GI50,[36],2620 nM
same,pIC50,[37],5.95
same,fold change (FC),[38],0.7
same,GI50,[39],1730 nM
same,Selectivity Index,[40],34.4
same,GI50,[41],2380 nM
same,GI50,[42],1240 nM
N=C(N)c1ccc(-c2ccc(-c3ccccc3)o2)o1,GI50,[1],2640 nM
same,GI50,[2],3030 nM
same,GI50,[3],1810 nM
same,GI50,[4],990 nM
same,GI50,[5],1640 nM
same,inhibition,[6],30.9%
same,GI50,[7],2220 nM
same,GI50,[8],1610 nM
same,GI50,[9],2890 nM
same,GI50,[10],3310 nM
same,fold change (FC),[11],0.4
same,GI50,[12],4130 nM
same,GI50,[13],1780 nM
same,GI50,[14],2340 nM
same,GI50,[15],5700 nM
same,GI50,[16],1790 nM
same,GI50,[17],1160 nM
same,GI50,[18],2180 nM
same,GI50,[19],2820 nM
same,GI50,[20],3550 nM
same,Activity,[21],Non-Toxic
same,GI50,[22],2610 nM
same,GI50,[23],1540 nM
same,GI50,[24],3480 nM
same,GI50,[25],1940 nM
same,GI50,[26],2560 nM
same,GI50,[27],1900 nM
same,GI50,[28],2400 nM
same,LC50,[28],22400 nM
same,TGI,[28],6910 nM
same,fold change (FC),[29],2.28
same,GI50,[30],2070 nM
same,inhibition,[31],41.3%
same,GI50,[32],3320 nM
same,GI50,[33],1750 nM
same,fold change (FC),[34],0.97
same,"hemolysis at 0.5 h, 5000 µM",[35],30.1%
same,GI50,[36],4000 nM
same,pIC50,[37],6.18
same,fold change (FC),[38],0.3
same,GI50,[39],1740 nM
same,Selectivity Index,[40],28.6
same,GI50,[41],2120 nM
same,GI50,[42],2110 nM
COc1cc(OC)cc(-c2ccc(-c3ccc(C(=N)N)o3)o2)c1,GI50,[1],4770 nM
same,GI50,[2],2890 nM
same,GI50,[3],2080 nM
same,GI50,[4],1520 nM
same,GI50,[5],2410 nM
same,inhibition,[6],31%
same,GI50,[7],2450 nM
same,GI50,[8],2050 nM
same,GI50,[9],2970 nM
same,GI50,[10],2440 nM
same,fold change (FC),[11],0.4
same,GI50,[12],6910 nM
same,GI50,[13],1840 nM
same,GI50,[14],5090 nM
same,GI50,[15],2260 nM
same,GI50,[16],1880 nM
same,GI50,[17],3180 nM
same,GI50,[18],1900 nM
same,GI50,[19],8260 nM
same,GI50,[20],3780 nM
same,Activity,[21],Non-Toxic
same,GI50,[22],2450 nM
same,GI50,[23],2670 nM
same,GI50,[24],3510 nM
same,GI50,[25],2300 nM
same,GI50,[26],2050 nM
same,GI50,[27],1820 nM
same,GI50,[28],3020 nM
same,LC50,[28],22900 nM
same,TGI,[28],8120 nM
same,fold change (FC),[29],1.03
same,GI50,[30],2510 nM
same,inhibition,[31],36%
same,GI50,[32],13400 nM
same,GI50,[33],1950 nM
same,fold change (FC),[34],1.24
same,"hemolysis at 0.5 h, 5000 µM",[35],7.5%
same,GI50,[36],3750 nM
same,GI50,[37],1980 nM
same,pIC50,[37],5.72
same,fold change (FC),[38],0.3
same,GI50,[39],4150 nM
same,Selectivity Index,[40],27
same,GI50,[41],2860 nM
same,GI50,[42],2770 nM
